In this assay the test system is cynomolgus monkey GCGR. In words: functional cAMP assay in transfected HEK293 cells. It counts as cell-based. The method, then: The same assay was performed for GLP-1R to assess cross-binding. Details of the assay procedure are described in Additional file 1 and have also been described elsewhere.
cAMP content of cells was determined using a kit from Cisbio Corp. (cat. no. 62AM4PEJ) based on HTRF (Homogenous Time Resolved Fluorescence). For preparation, cells were split into T175 culture flasks and grown overnight to near confluency in medium (DMEM / 10% FBS). Medium was then removed and cells washed with PBS lacking calcium and magnesium, followed by proteinase treatment with accutase (Sigma-Aldrich cat. no. A6964). Detached cells were washed and resuspended in assay buffer (1 x HBSS; 20 mM HEPES, 0.1% BSA, 2 mM IBMX) and cellular density determined. They were then diluted to 400000 cells/ml and 25 µl-aliquots dispensed into the wells of 96-well plates. For measurement, 25 µl of test compound in assay buffer was added to the wells, followed by incubation for 30 minutes at room temperature.

Bridge positions count the residues as written; N and C are the ends. Square brackets hold non-standard residues; d marks the D form. Peptide text beside a SMILES is read from it. * marks the point of attachment. DO3A(CH2CH2SO2CH2CH2) = O=C(O)CN1CCN(CCS(=O)(=O)CC*)CCN(CC(=O)O)CCN(CC(=O)O)CC1; Ala(4-thiazolyl) = N[C@@H](Cc1cscn1)C(=O)O

As to `CC[C@H](C)[C@H](NC(=O)[C@H](Cc1ccccc1)NC(=O)[C@H](CCC(=O)O)NC(=O)[C@@H]1CCCCNC(=O)CC[C@H](NC(=O)[C@H](CC(=O)O)NC(=O)[C@H](CC(C)C)NC(=O)[C@H](CCC(N)=O)NC(=O)[C@H](CCCCN)NC(=O)[C@H](CO)NC(=O)[C@H](Cc2ccc(O)cc2)NC(=O)[C@H](CC(=O)O)NC(=O)[C@H](CO)NC(=O)[C@@H](NC(=O)[C@H](Cc2ccccc2)NC(=O)[C@@H](NC(=O)CNC(=O)[C@H](CCC(N)=O)NC(=O)[C@@H](CO)NC(=O)[C@@H](N)Cc2cscn2)[C@@H](C)O)[C@@H](C)O)C(=O)N[C@@H](CCC(N)=O)C(=O)N[C@@H](CCCNC(=N)N)C(=O)N[C@@H](C)C(=O)N1)C(=O)N[C@@H](CCC(=O)O)C(=O)N[C@@H](Cc1c[nH]c2ccccc12)C(=O)N[C@@H](CC(C)C)C(=O)N[C@@H](CC(C)C)C(=O)N[C@@H](C)C(=O)N[C@H](C(=O)NCC(=O)N1CCC[C@H]1C(=O)N[C@@H](CCC(=O)O)C(=O)N[C@@H](CO)C(=O)NCC(=O)N[C@@H](C)C(=O)N1CCC[C@H]1C(=O)N1CCC[C@H]1C(=O)N1CCC[C@H]1C(=O)N[C@@H](CO)C(=O)N[C@@H](CSCCS(=O)(=O)CCN1CCN(CC(=O)O)CCN(CC(=O)O)CCN(CC(=O)O)CC1)C(N)=O)[C@@H](C)O` [DO3A-S01-GCG] (H-[Ala(4-thiazolyl)][dS]QGTFTSDYSKQLDEQRAKEFIEWLLATGPESGAPPPSC(DO3A(CH2CH2SO2CH2CH2))-NH2; lactam 16-20), the 50% effective concentration (EC50) came to 1.2 pM.
